Assay [1] has as its system human aortic endothelial cells (HAEC). Particulars: HAEC pre-treated with increasing amounts; DEA-NONOate 10 min, DETA-NONOate 16 h, SNAP 6 h, NEM 1 h, L-NAME 16 h. As to the method:
To explore the effect of NO upon granule exocytosis, thrombin induced exocytosis of Weibel-Palade bodies from human aortic endothelial cells (HAEC) which release von Willebrand's Factor (vWF) was studied. HAEC was pre-treated with an NO donor 2-(N,N-diethylamino)-diazenolate-2-oxide (DEA-NONOate) 10 mM or with DEA as a control, stimulated the cells with thrombin 1 U/ml for 1 h, and the amount of vWF released into the media was then measured. […] HAEC was then pre-treated with increasing amounts of various NO donors, including a rapidly releasing NO donor DEA-NONOate for 10 min, a slowly releasing NO donor DETA-NONOate for 16 h, or a nitrosothiol S-nitroso-penicillamine (SNAP) for 6 h; alternatively, cells were treated with NEM for 1 h.
The role of endogenous NO in the regulation of Weibel-Palade body exocytosis was then explored. HAEC was pre-treated with L-NAME for 16 h in order to inhibit endogenous NOS, and then the cells were stimulated with 1 U/ml thrombin for 1 h and vWF release was measured. […] HAEC was next pre-treated with vascular endothelial growth factor (VEGF) in order to activate endogenous NOS3. Cells were incubated with 50 ng/ml VEGF or control for 2 h, and then stimulated with thrombin.
A peptide inhibitor of NSF that crosses cell membranes was designed. This peptide, designated TAT-NSF222, includes the protein transduction domain of HIV TAT (residues 47-57) previously shown to transduce polypeptides into cells (Becker-Hapak et al., 2001), fused to a fragment of NSF (residues 222-243) previously shown to inhibit NSF (Schweizer et al., 1998). […] HAEC were then incubated for 20 min with TAT-NSF222, or with a control peptide TAT-NSF222scr that consisted of the intact TAT domain followed by the amino acid residues of NSF 222-243 in a scrambled order. HAEC were transduced with TAT-NSF peptides, treated with media or thrombin, and the amount of vWF released into the media was measured by ELISA.
Since NSF plays a general role in vesicle trafficking, permanent inactivation of NSF would slow vesicular trafficking in general. However, local production of NO at the plasma membrane and reversible nitrosylation of NSF could provide spatial regulation of NSF.
Human aortic endothelial cells (HAEC) and EGM-2 media were obtained from Clonetics (Walkersville, Md.). HAEC were pre-treated with NO donors, washed, stimulated with 1 U/mil of thrombin, and the amount of vWF released into the media was measured by an ELISA (American Diagnostica, Greenwich, Conn.). HAEC were permeabilized by incubation with 10 U/well of SLO (Sigma) in PBS pH 7.4 for 15 min at 37° C. (Walev et al., 2001). Some cells were incubated with 20-200 μg/ml of antibodies or with 100 μg/ml of recombinant NSF. Cells were then resealed by incubation with EGM-2 media for 4 h at 37° C., washed with EGM-2 media, and stimulated with thrombin as above.
The ability of TAT-NSF to affect exocytosis from cells was investigated. Endothelial cells release vWF by exocytosis when stimulated by thrombin. Accordingly, endothelial cells were incubated with increasing amounts of TAT-NSF peptides for 20 min, then treated with 1 U/ml thrombin, and the amount of vWF released into the media was measured by ELISA.
Human aortic endothelial cells (HAEC) and EGM-2 media were obtained from Clonetics (Walkersville, Md.). HAEC were pre-treated with TAT-NSF peptides for 20 min, washed, stimulated with 1 U/ml of thrombin, and the amount of vWF released into the media was measured by an ELISA (American Diagnostica, Greenwich, Conn.).

The target of assay [2] is T1, recombinant NSF (Cricetulus griseus, UniProt P18708).
T1 construct: RGS-(His)6 (N); made in house; host or cells: bacteria
Description: NSF ATPase assay (coupled colorimetric assay). Type of assay: biochemical. As to conditions: recombinant NSF. As to the method:
The effect of NO upon NSF activity was next explored, since NO inhibits Weibel-Palade body exocytosis, and since NSF regulates Weibel-Palade body exocytosis. The effect of NO upon the ATPase activity of NSF was first examined. DEA-NONOate was added to recombinant NSF, and the ATPase activity of NSF was measured.
(§1) The ATPase activity of NSF was measured by a coupled assay, in which ATP utilization is linked to the pyruvate kinase reaction, which generates pyruvate, which in turn is measured continuously with lactate dehydrogenase (Huang and Hackney, 1994). Recombinant NSF (0.2 μg/μl) was pre-treated with buffer or DEA or DEA-NONOate or NEM for 10 min at 22° C. ATPase reaction buffer (100 mM HEPES buffer, pH 7.0, 100 mM KCl, 10 mM MgCl2, 5 mM CaCl2, 10 mM ATP, 5 mM phosphoenol pyruvate, 50 U lactate dehydrogenase, and 50 U pyruvate kinase) was added to the mixture, followed by 10 μl of NADH (2 mg/ml in 1% sodium bicarbonate). The mixture was incubated for 10 min at 22° C., and the absorbance was measured at 340 nm.
The effect of the TAT-NSF peptide inhibitors upon the ability of NSF to hydrolyze ATP was measured. 10 μM TAT-NSF peptides was added to recombinant NSF, and the hydrolysis of ATP was measured. All 5 TAT-NSF peptides inhibited NSF ATPase activity (FIG. 8A). […] The effects of TAT-NSF81 (SEQ ID NO: 6) upon NSF were further defined. TAT-NSF81 (SEQ ID NO: 6) inhibits NSF ATPase activity in a dose-dependent manner with an IC50% between 1-10 μM (FIG. 8B).
as §1, with “TAT-NSF peptides” for “DEA or DEA-NONOate or NEM”

Assay [3] concerns the target T2, NSF disassembly of the SNARE complex (Cricetulus griseus, UniProt P18708).
T2 construct: made in house; host or cells: bacteria (NSF, alpha-SNAP); BL21 cells (GST-SNAREs)
Type of assay: biochemical. As to conditions: ATP.
Description: Accordingly, recombinant NSF was pre-treated with the NO donor DEA-NONOate 1 mM for 10 min. Pre-treated NSF, α-SNAP, and detergent extracts of HAEC membranes were then mixed in the presence of 0.5 mM ATP or ATP-γS. These reactions were then fractionated by sucrose density gradient ultracentrifugation, fractions were collected from the bottom of the tube, and immunoblotted with antibody to syntaxin-4.
The effect of NO upon NSF disassembly of purified, recombinant SNARE molecules was next examined. Recombinant (His)6-NSF was pre-treated or not with 1 mM DEA-NONOate for 10 min, and then mixed with and (His)6-a-SNAP and recombinant SNARE fusion polypeptides identified in endothelial cells: GST-syntaxin-4, VAMP-3, and SNAP-23. ATP or ATP-γS was added, the mixture was precipitated with glutathione-sepharose beads, and precipitated proteins were fractionated by SDS-PAGE and immunoblotted with antibody to the NSF tag.
The disassembly activity of NSF was measured by a co-precipitation assay (Pevsner et al., 1994). […] This mixture of NSF and SNARE polypeptides was then incubated in binding buffer (4 mM HEPES pH 7.4, 0.1M NaCl, 1 mM EDTA, 3.5 mM CaCl2, 3.5 mM MgCl2, and 0.5% Nonidet P-40) and glutathione-sepharose beads for 1 h at 4° C. with rotation. The beads were washed with binding buffer 4 times, mixed with SDS-PAGE sample buffer, boiled for 3 min, and analyzed by immunoblotting.
The effect of the TAT-NSF peptide inhibitors upon the ability of NSF to separate from SNARE complexes was measured. Recombinant NSF was pre-treated with 1 μM TAT-NSF peptides, and recombinant GST-SNARE polypeptides were then added, including syntaxin-4, SNAP-23, and VAMP-3. […]
The effect of TAT-NSF peptides on NSF disassembly activity was determined. […]
TAT-NSF81 (SEQ ID NO: 6) inhibition of NSF disassembly activity was also investigated. […] ATP was added, GST-SNAREs were precipitated with glutathione-sepharose, and the precipitant was analyzed for the co-precipitation of NSF.
The disassembly activity of NSF was measured by a co-precipitation assay (Pevsner et al., 1994). […]

Assay [4] concerns the target T1, recombinant NSF. Description: S-nitrosylation of recombinant NSF (Saville reaction). Type of assay: biochemical. As to conditions: 1 mM DEA-NONOate. As to the method:
The number of cysteine residues that are nitrosylated by exogenous NO was next measured. Recombinant NSF was exposed to increasing amounts of DEA-NONOate, and then the Saville reaction was used to measure the number of nitrosocysteine residues per molecule of NSF. NO nitrosylates NSF in a dose-dependent manner (FIG. 4C). At 1 mM DEA-NONOate, approximately 3 cysteine residues are modified by NO per each molecule of NSF.
Measurement of cysteine residues nitrosylated in vitro was performed by the Saville and Griess assays (Saura et al., 1999). Measurement of NSF nitrosylated in cultured cells was performed by immunoprecipitation with antibody to nitrosocysteine, followed by immunoblotting with antibody to NSF. Measurement of cysteine residues nitrosylated in vivo was performed as previously (Jaffrey et al., 2001; Jaffrey and Snyder, 2001).

These results are taken from patent US7910111B2, “Inhibitors of N-ethylmaleimide sensitive factor” (The Johns Hopkins University, priority 2003, dated 2011).

T1 sequence (P18708 whole entry): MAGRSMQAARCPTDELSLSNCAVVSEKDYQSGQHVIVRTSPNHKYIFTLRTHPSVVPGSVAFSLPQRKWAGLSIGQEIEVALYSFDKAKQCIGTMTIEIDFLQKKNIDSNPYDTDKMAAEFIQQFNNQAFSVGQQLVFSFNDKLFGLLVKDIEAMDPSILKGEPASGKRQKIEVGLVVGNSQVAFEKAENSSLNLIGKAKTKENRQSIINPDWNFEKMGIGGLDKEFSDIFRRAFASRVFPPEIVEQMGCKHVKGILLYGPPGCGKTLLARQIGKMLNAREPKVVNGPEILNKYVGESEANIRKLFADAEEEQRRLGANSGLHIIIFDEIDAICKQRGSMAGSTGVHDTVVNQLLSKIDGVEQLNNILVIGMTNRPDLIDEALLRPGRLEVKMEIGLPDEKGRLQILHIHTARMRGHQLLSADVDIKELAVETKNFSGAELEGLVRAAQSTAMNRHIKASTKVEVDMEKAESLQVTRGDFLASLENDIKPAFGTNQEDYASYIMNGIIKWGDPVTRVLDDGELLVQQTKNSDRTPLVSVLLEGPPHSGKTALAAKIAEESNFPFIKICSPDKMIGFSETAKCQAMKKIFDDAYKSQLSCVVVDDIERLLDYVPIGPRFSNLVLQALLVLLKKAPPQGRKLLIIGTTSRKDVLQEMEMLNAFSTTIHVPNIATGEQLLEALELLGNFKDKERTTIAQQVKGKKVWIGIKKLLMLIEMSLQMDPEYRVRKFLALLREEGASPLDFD
T2 sequence (P18708 whole entry): as above
T2 sequence (P81125 whole entry partner): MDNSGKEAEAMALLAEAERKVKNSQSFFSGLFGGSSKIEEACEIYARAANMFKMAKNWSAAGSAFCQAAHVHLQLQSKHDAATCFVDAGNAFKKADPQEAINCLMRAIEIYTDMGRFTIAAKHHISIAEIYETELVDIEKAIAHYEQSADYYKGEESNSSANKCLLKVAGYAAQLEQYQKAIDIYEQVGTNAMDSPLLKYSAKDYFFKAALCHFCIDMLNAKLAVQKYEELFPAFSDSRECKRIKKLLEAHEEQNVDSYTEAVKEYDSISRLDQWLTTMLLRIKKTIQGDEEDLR
T2 sequence (Q12846 whole entry partner): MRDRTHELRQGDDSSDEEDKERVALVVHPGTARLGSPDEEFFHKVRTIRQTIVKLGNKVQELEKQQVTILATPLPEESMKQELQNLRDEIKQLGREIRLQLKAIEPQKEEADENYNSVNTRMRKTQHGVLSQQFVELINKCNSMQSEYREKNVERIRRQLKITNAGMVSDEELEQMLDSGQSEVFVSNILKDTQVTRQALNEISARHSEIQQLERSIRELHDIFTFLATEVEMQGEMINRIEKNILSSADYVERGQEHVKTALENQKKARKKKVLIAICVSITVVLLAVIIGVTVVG
T2 sequence (Q15836 whole entry partner): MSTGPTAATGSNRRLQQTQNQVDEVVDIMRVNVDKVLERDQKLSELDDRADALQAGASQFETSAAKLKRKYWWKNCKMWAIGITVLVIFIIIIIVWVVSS
T2 sequence (O00161 whole entry partner): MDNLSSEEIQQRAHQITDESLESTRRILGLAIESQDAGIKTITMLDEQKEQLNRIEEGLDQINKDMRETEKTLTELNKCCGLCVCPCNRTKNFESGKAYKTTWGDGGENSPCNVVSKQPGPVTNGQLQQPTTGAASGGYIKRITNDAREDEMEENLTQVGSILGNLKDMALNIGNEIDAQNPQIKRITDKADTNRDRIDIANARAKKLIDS

`CCN(CC)[N+]([O-])=NO` [DEA-NONOate, 2-(N,N-diethylamino)-diazenolate-2-oxide]: the “effect on thrombin induced vWF release, dose response” value in assay [1] was “inhibits thrombin induced vWF release”. The “effect on NSF ATPase activity” value at recombinant NSF [2] is recorded as “does not significantly inhibit NSF hydrolysis of ATP”. Further, the “effect on NSF disassembly of 20S SNARE complex from endothelial cell extracts” value in assay [3] (NSF pre-treated with 1 mM for 10 min, HAEC membrane extracts) was “inhibits the ability of NSF to disassemble a 20S SNARE complex”. Moreover, the “effect on NSF disassembly activity” value in assay [3] (recombinant NSF, α-SNAP, GST-SNAREs, TAT-NSF peptides 1 μM in Example 2) is reported as “inhibits NSF disassembly activity”. In addition, at recombinant NSF [4], the “cysteine residues modified by NO per molecule of NSF” value is “approximately 3”.
